Laboratory results reported in ChEMBL document CHEMBL3885881, “DrugMatrix”.

Organism: Rattus norvegicus
Assay: DrugMatrix - Regimen: Daily Repeat
Type: toxicity, organism-based, Sprague-Dawley
Set-up: regimen Daily Repeat, gender Male, age 6-8 weeks
Conditions: in vivo, po, 750 mg/kg, route oral GAVAGE, dose level High, vehicle .5 % CMC; for BASOPHIL / EOSINOPHIL / ERYTHROCYTE COUNT / HEMATOCRIT / HEMOGLOBIN / LEUKOCYTE COUNT / LYMPHOCYTE / MEAN CORPUSCULAR HEMOGLOBIN / MEAN CORPUSCULAR HEMOGLOBIN CONCENTRATION / MEAN CORPUSCULAR VOLUME / MONOCYTE / NEUTROPHIL / PLATELET COUNT: tissue Blood; for ALANINE AMINOTRANSFERASE / ALBUMIN / ALKALINE PHOSPHATASE / ASPARTATE AMINOTRANSFERASE / BLOOD UREA NITROGEN / CARBON DIOXIDE / CHLORIDE / CHOLESTEROL / CREATINE PHOSPHOKINASE / CREATININE / GLUCOSE / LACTATE DEHYDROGENASE / LIPASE / PHOSPHORUS / POTASSIUM / SODIUM / TOTAL BILIRUBIN / TOTAL PROTEIN / URIC ACID: tissue Plasma

ClC(Cl)(Cl)C(Cl)(Cl)Cl [HEXACHLOROETHANE]
BASOPHIL (96 h, time 4 day): 0.3% | EOSINOPHIL (96 h, time 4 day): 0.6% | ERYTHROCYTE COUNT (96 h, time 4 day): 7.16 x10E6/uL | HEMATOCRIT (96 h, time 4 day): 45.77% | HEMOGLOBIN (96 h, time 4 day): 14.9 G/DL | LEUKOCYTE COUNT (96 h, time 4 day): 12.35 x10E3/uL | LYMPHOCYTE (96 h, time 4 day): 79.87% | MEAN CORPUSCULAR HEMOGLOBIN (96 h, time 4 day): 20.77 pg | MEAN CORPUSCULAR HEMOGLOBIN CONCENTRATION (96 h, time 4 day): 32.5 G/DL | MEAN CORPUSCULAR VOLUME (96 h, time 4 day): 63.9 fL | MONOCYTE (96 h, time 4 day): 2.47% | NEUTROPHIL (96 h, time 4 day): 16.1% | PLATELET COUNT (96 h, time 4 day): 1434.33 x10E3/uL | ALANINE AMINOTRANSFERASE (96 h, time 4 day): 28 u/L | ALBUMIN (96 h, time 4 day): 3.87 G/DL | ALKALINE PHOSPHATASE (96 h, time 4 day): 292 u/L | ASPARTATE AMINOTRANSFERASE (96 h, time 4 day): 63.67 u/L | BLOOD UREA NITROGEN (96 h, time 4 day): 17.67 mg/dL | CARBON DIOXIDE (96 h, time 4 day): 21.67 mmol/L | CHLORIDE (96 h, time 4 day): 108.33 MEQ/L | CHOLESTEROL (96 h, time 4 day): 74.67 mg/dL | CREATINE PHOSPHOKINASE (96 h, time 4 day): 242 u/L | CREATININE (96 h, time 4 day): 0.43 mg/dL | GLUCOSE (96 h, time 4 day): 177 mg/dL | LACTATE DEHYDROGENASE (96 h, time 4 day): 82 u/L | LIPASE (96 h, time 4 day): 19 u/L | PHOSPHORUS (96 h, time 4 day): 11.57 mg/dL | POTASSIUM (96 h, time 4 day): 5.67 MEQ/L | SODIUM (96 h, time 4 day): 150 MEQ/L | TOTAL BILIRUBIN (96 h, time 4 day): 0.23 mg/dL | TOTAL PROTEIN (96 h, time 4 day): 6.5 G/DL | URIC ACID (96 h, time 4 day): 1.17 mg/dL | BASOPHIL ([…], time 6 day): 0.4% | EOSINOPHIL ([…], time 6 day): 0.57% | ERYTHROCYTE COUNT ([…], time 6 day): 7.65 x10E6/uL | HEMATOCRIT ([…], time 6 day): 47.3% | HEMOGLOBIN ([…], time 6 day): 15.03 G/DL | LEUKOCYTE COUNT ([…], time 6 day): 11.09 x10E3/uL | LYMPHOCYTE ([…], time 6 day): 86.53% | MEAN CORPUSCULAR HEMOGLOBIN ([…], time 6 day): 19.67 pg | MEAN CORPUSCULAR HEMOGLOBIN CONCENTRATION ([…], time 6 day): 31.77 G/DL | MEAN CORPUSCULAR VOLUME ([…], time 6 day): 61.9 fL | MONOCYTE ([…], time 6 day): 1.6% | NEUTROPHIL ([…], time 6 day): 10.43% | PLATELET COUNT ([…], time 6 day): 1317.33 x10E3/uL | BASOPHIL ([…], time 14 day): 0.38% | EOSINOPHIL ([…], time 14 day): 1.98% | ERYTHROCYTE COUNT ([…], time 14 day): 8.11 x10E6/uL | HEMATOCRIT ([…], time 14 day): 53.9% | HEMOGLOBIN ([…], time 14 day): 15.78 G/DL | LEUKOCYTE COUNT ([…], time 14 day): 13.93 x10E3/uL | LYMPHOCYTE ([…], time 14 day): 77.98% | MEAN CORPUSCULAR HEMOGLOBIN ([…], time 14 day): 19.5 pg | MEAN CORPUSCULAR HEMOGLOBIN CONCENTRATION ([…], time 14 day): 29.3 G/DL | MEAN CORPUSCULAR VOLUME ([…], time 14 day): 66.52 fL | MONOCYTE ([…], time 14 day): 1.82% | NEUTROPHIL ([…], time 14 day): 17.32% | PLATELET COUNT ([…], time 14 day): 1210 x10E3/uL | ALANINE AMINOTRANSFERASE ([…], time 6 day): 38.33 u/L | ALBUMIN ([…], time 6 day): 3.9 G/DL | ALKALINE PHOSPHATASE ([…], time 6 day): 248.33 u/L | ASPARTATE AMINOTRANSFERASE ([…], time 6 day): 85.33 u/L | BLOOD UREA NITROGEN ([…], time 6 day): 17 mg/dL | CARBON DIOXIDE ([…], time 6 day): 24 mmol/L | CHLORIDE ([…], time 6 day): 109.67 MEQ/L | CHOLESTEROL ([…], time 6 day): 81 mg/dL | CREATINE PHOSPHOKINASE ([…], time 6 day): 545 u/L | CREATININE ([…], time 6 day): 0.33 mg/dL | GLUCOSE ([…], time 6 day): 171.67 mg/dL | LACTATE DEHYDROGENASE ([…], time 6 day): 134.33 u/L | LIPASE ([…], time 6 day): 4.67 u/L | PHOSPHORUS ([…], time 6 day): 12.5 mg/dL | POTASSIUM ([…], time 6 day): 7.1 MEQ/L | SODIUM ([…], time 6 day): 619.67 MEQ/L | TOTAL BILIRUBIN ([…], time 6 day): 0.23 mg/dL | TOTAL PROTEIN ([…], time 6 day): 6.6 G/DL | URIC ACID ([…], time 6 day): 1.57 mg/dL | ALANINE AMINOTRANSFERASE ([…], time 14 day): 49.8 u/L | ALBUMIN ([…], time 14 day): 4.38 G/DL | ALKALINE PHOSPHATASE ([…], time 14 day): 322.6 u/L | ASPARTATE AMINOTRANSFERASE ([…], time 14 day): 75 u/L | BLOOD UREA NITROGEN ([…], time 14 day): 15.6 mg/dL | CARBON DIOXIDE ([…], time 14 day): 27.6 mmol/L | CHLORIDE ([…], time 14 day): 104.8 MEQ/L | CHOLESTEROL ([…], time 14 day): 84.4 mg/dL | CREATINE PHOSPHOKINASE ([…], time 14 day): 289.2 u/L | CREATININE ([…], time 14 day): 0.42 mg/dL | GLUCOSE ([…], time 14 day): 153.6 mg/dL | LACTATE DEHYDROGENASE ([…], time 14 day): 57.2 u/L | LIPASE ([…], time 14 day): 7.2 u/L | PHOSPHORUS ([…], time 14 day): 13.42 mg/dL | POTASSIUM ([…], time 14 day): 6.7 MEQ/L | SODIUM ([…], time 14 day): 151.4 MEQ/L | TOTAL BILIRUBIN ([…], time 14 day): 0.34 mg/dL | TOTAL PROTEIN ([…], time 14 day): 7.08 G/DL | URIC ACID ([…], time 14 day): 1.5 mg/dL
